Results as given in the supplement of paper PMC10627819.

Legend:
B. subtilis 168 [1] = experiment: fitness (endpoint OD595 vs no drug) (fraction); higher = more growth
How it was run: (§1)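 At 37 °C, bacteria in TSB, LB Lennox or CY were grown in 384-well plates from a starting OD595 of 0.01. OD595 was measured every 30 min for 14 h, with the first reading used as background. Fitness is the optical density at the switch to stationary phase as a fraction of the robust mean of no-drug control wells, capped at 1.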

S. aureus DSM 20231 [2] = experiment: as above
How it was run: as §1

S. aureus Newman [3] = experiment: as above
How it was run: as §1

S. pneumoniae D39V [4] = experiment: as above
How it was run: as §1

B. subtilis 168 [5] = experiment: Bliss interaction score (quartile over a dose matrix) (fitness difference); higher = more antagonism (negative = synergy)
How it was run: (§2)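 Growth was read as OD595 when cultures entered stationary phase, and each value was divided by the plate's robust no-drug mean and capped at 1. This normalised ratio is the fitness value, and fitness for each single drug came from the combination data. The Bliss score subtracts the expected fitness, taken as the product, from the observed fitness and is given as quartiles across technical, biological and donor/recipient replicates.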

S. aureus DSM 20231 [6] = experiment: as above
How it was run: as §2

S. aureus Newman [7] = experiment: as above
How it was run: as §2

S. pneumoniae D39V [8] = experiment: as above
How it was run: as §2

[9] = first compound 0.625 µg/mL, partner 0.0075 µg/mL
[10] = first compound 0.625 µg/mL, partner 0.015 µg/mL
[11] = first compound 1.25 µg/mL, partner 0.0075 µg/mL
[12] = first compound 1.25 µg/mL, partner 0.015 µg/mL
[13] = first compound 2.5 µg/mL, partner 0.0075 µg/mL
[14] = first compound 2.5 µg/mL, partner 0.015 µg/mL
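Wherever Bliss interaction score (quartile over a dose matrix) is given: first quartile when negative (synergy) and third quartile when positive (antagonism).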
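Wherever fitness (endpoint OD595 vs no drug) is given: OD595 on entry to stationary phase over no-drug wells; at most 1.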

Work on `Cc1ncc([N+](=O)[O-])n1CCO` [Metronidazole] + COc1c(N2C[C@@H]3CCCN[C@@H]3C2)c(F)cc2c(=O)c(C(=O)O)cn(C3CC3)c12 [Moxifloxacin] yielded a fitness (B. subtilis 168 [1]; first compound 0.625 µg/mL, partner 0.0312 µg/mL) of 0.0445, a fitness (B. subtilis 168 [1]; first compound 0.625 µg/mL, partner 0.0625 µg/mL) of 0.0572 and a fitness (B. subtilis 168 [1]; first compound 0.625 µg/mL, partner 0.125 µg/mL) of 0.045. The fitness (B. subtilis 168 [1]; first compound 0.625 µg/mL, partner 2 µg/mL) was 0.0237, the fitness (B. subtilis 168 [1]; first compound 0.625 µg/mL, partner 4 µg/mL) was 0.0328 and the fitness (B. subtilis 168 [1]; first compound 0.625 µg/mL, partner 8 µg/mL) was 0.0161. It also gave a fitness (B. subtilis 168 [1]; first compound 1.25 µg/mL, partner 0.0312 µg/mL) of 0.0649, a fitness (B. subtilis 168 [1]; first compound 1.25 µg/mL, partner 0.0625 µg/mL) of 0.0674 and a fitness (B. subtilis 168 [1]; first compound 1.25 µg/mL, partner 0.125 µg/mL) of 0.0461. The fitness (B. subtilis 168 [1]; first compound 1.25 µg/mL, partner 2 µg/mL) was 0.0257, the fitness (B. subtilis 168 [1]; first compound 1.25 µg/mL, partner 4 µg/mL) was 0.0355 and the fitness (B. subtilis 168 [1]; first compound 1.25 µg/mL, partner 8 µg/mL) was 0.022. It also gave a fitness (B. subtilis 168 [1]; first compound 2.5 µg/mL, partner 0.0312 µg/mL) of 0.0682, a fitness (B. subtilis 168 [1]; first compound 2.5 µg/mL, partner 0.0625 µg/mL) of 0.0527 and a fitness (B. subtilis 168 [1]; first compound 2.5 µg/mL, partner 0.125 µg/mL) of 0.0558. It also gave a fitness (B. subtilis 168 [1]; first compound 2.5 µg/mL, partner 2 µg/mL) of 0.0301, a fitness (B. subtilis 168 [1]; first compound 2.5 µg/mL, partner 4 µg/mL) of 0.0306 and a fitness (B. subtilis 168 [1]; first compound 2.5 µg/mL, partner 8 µg/mL) of 0.0188. For the same compound, the fitness (S. aureus DSM 20231 [2]; [9]) was 0.835, the fitness (S. aureus DSM 20231 [2]; [10]) was 0.779 and the fitness (S. aureus DSM 20231 [2]; first compound 0.625 µg/mL, partner 0.03 µg/mL) was 0.635. It also gave a fitness (S. aureus DSM 20231 [2]; first compound 0.625 µg/mL, partner 0.06 µg/mL, one replicate) of 0.703, a fitness (S. aureus DSM 20231 [2]; first compound 0.625 µg/mL, partner 0.12 µg/mL, one replicate) of 0.498 and a fitness (S. aureus DSM 20231 [2]; [11]) of 0.834. The fitness (S. aureus DSM 20231 [2]; [12]) was 0.807, the fitness (S. aureus DSM 20231 [2]; first compound 1.25 µg/mL, partner 0.03 µg/mL) was 0.633 and the fitness (S. aureus DSM 20231 [2]; first compound 1.25 µg/mL, partner 0.06 µg/mL, one replicate) was 0.666. For the same compound, the fitness (S. aureus DSM 20231 [2]; first compound 1.25 µg/mL, partner 0.12 µg/mL, one replicate) was 0.486, the fitness (S. aureus DSM 20231 [2]; [13]) was 0.883 and the fitness (S. aureus DSM 20231 [2]; [14]) was 0.828. For the same compound, the fitness (S. aureus DSM 20231 [2]; first compound 2.5 µg/mL, partner 0.03 µg/mL) was 0.652, the fitness (S. aureus DSM 20231 [2]; first compound 2.5 µg/mL, partner 0.06 µg/mL, one replicate) was 0.703 and the fitness (S. aureus DSM 20231 [2]; first compound 2.5 µg/mL, partner 0.12 µg/mL, one replicate) was 0.541. It also gave a fitness (S. aureus Newman [3]; [9]) of 0.77, a fitness (S. aureus Newman [3]; [10]) of 0.62 and a fitness (S. aureus Newman [3]; first compound 0.781 µg/mL, partner 0.0075 µg/mL) of 0.691. For the same compound, the fitness (S. aureus Newman [3]; first compound 0.781 µg/mL, partner 0.015 µg/mL) was 0.537, the fitness (S. aureus Newman [3]; first compound 0.781 µg/mL, partner 0.03 µg/mL) was 0.0945 and the fitness (S. aureus Newman [3]; [11]) was 0.811. For the same compound, the fitness (S. aureus Newman [3]; [12]) was 0.598, the fitness (S. aureus Newman [3]; first compound 1.562 µg/mL, partner 0.0075 µg/mL) was 0.689 and the fitness (S. aureus Newman [3]; first compound 1.562 µg/mL, partner 0.015 µg/mL) was 0.531. For the same compound, the fitness (S. aureus Newman [3]; first compound 1.562 µg/mL, partner 0.03 µg/mL) was 0.0833, the fitness (S. aureus Newman [3]; [13]) was 0.757 and the fitness (S. aureus Newman [3]; [14]) was 0.596. It also gave a fitness (S. aureus Newman [3]; first compound 3.124 µg/mL, partner 0.0075 µg/mL) of 0.725, a fitness (S. aureus Newman [3]; first compound 3.124 µg/mL, partner 0.015 µg/mL) of 0.525 and a fitness (S. aureus Newman [3]; first compound 3.124 µg/mL, partner 0.03 µg/mL) of 0.0829. For the same compound, the fitness (S. pneumoniae D39V [4]; first compound 1.073 µg/mL, partner 0.0037 µg/mL) was 0.834, the fitness (S. pneumoniae D39V [4]; first compound 1.073 µg/mL, partner 0.0075 µg/mL) was 0.85 and the fitness (S. pneumoniae D39V [4]; first compound 1.073 µg/mL, partner 0.015 µg/mL) was 0.879. It also gave a fitness (S. pneumoniae D39V [4]; first compound 1.25 µg/mL, partner 0.005 µg/mL) of 0.991, a fitness (S. pneumoniae D39V [4]; first compound 1.25 µg/mL, partner 0.01 µg/mL) of no less than 1 and a fitness (S. pneumoniae D39V [4]; first compound 1.25 µg/mL, partner 0.02 µg/mL) of 0.975. It also gave a fitness (S. pneumoniae D39V [4]; first compound 2.145 µg/mL, partner 0.0037 µg/mL) of 0.689, a fitness (S. pneumoniae D39V [4]; first compound 2.145 µg/mL, partner 0.0075 µg/mL) of 0.707 and a fitness (S. pneumoniae D39V [4]; first compound 2.145 µg/mL, partner 0.015 µg/mL) of 0.808. It also gave a fitness (S. pneumoniae D39V [4]; first compound 2.5 µg/mL, partner 0.005 µg/mL) of no less than 1, a fitness (S. pneumoniae D39V [4]; first compound 2.5 µg/mL, partner 0.01 µg/mL) of no less than 1 and a fitness (S. pneumoniae D39V [4]; first compound 2.5 µg/mL, partner 0.02 µg/mL) of no less than 1. It also gave a fitness (S. pneumoniae D39V [4]; first compound 4.29 µg/mL, partner 0.0037 µg/mL) of 0.742, a fitness (S. pneumoniae D39V [4]; first compound 4.29 µg/mL, partner 0.0075 µg/mL) of 0.787 and a fitness (S. pneumoniae D39V [4]; first compound 4.29 µg/mL, partner 0.015 µg/mL) of 0.84. For the same compound, the fitness (S. pneumoniae D39V [4]; first compound 5 µg/mL, partner 0.005 µg/mL) was no less than 1, the fitness (S. pneumoniae D39V [4]; first compound 5 µg/mL, partner 0.01 µg/mL) was 0.999 and the fitness (S. pneumoniae D39V [4]; first compound 5 µg/mL, partner 0.02 µg/mL) was 0.983. For the same compound, the Bliss interaction score (B. subtilis 168 [5]) was -0.015, the Bliss interaction score (S. aureus DSM 20231 [6]) was -0.063 and the Bliss interaction score (S. aureus Newman [7]) was -0.0493. It also gave a Bliss interaction score (S. pneumoniae D39V [8]) of 0.0628.
